# Test system: not listed separately
# Assay: Lipophilicity, logP of the compound
# Type: physicochemical
# Conditions: octanol/water
row,SMILES,logP
1,O=c1ccc2c(OCCCCOc3ccccc3)c3ccoc3cc2o1,4.03

# Target: Potassium voltage-gated channel subfamily A member 3 (Homo sapiens, UniProt P22001)
# Assay: Inhibition of Kv1.3 expressed in mouse L929 cells exposed to depolarizing step pulses from -80 mV to +40 mV by whole cell patch clamp method
# Type: cell-based
# Conditions: not given
# Sequence of Potassium voltage-gated channel subfamily A member 3 (P22001 whole entry): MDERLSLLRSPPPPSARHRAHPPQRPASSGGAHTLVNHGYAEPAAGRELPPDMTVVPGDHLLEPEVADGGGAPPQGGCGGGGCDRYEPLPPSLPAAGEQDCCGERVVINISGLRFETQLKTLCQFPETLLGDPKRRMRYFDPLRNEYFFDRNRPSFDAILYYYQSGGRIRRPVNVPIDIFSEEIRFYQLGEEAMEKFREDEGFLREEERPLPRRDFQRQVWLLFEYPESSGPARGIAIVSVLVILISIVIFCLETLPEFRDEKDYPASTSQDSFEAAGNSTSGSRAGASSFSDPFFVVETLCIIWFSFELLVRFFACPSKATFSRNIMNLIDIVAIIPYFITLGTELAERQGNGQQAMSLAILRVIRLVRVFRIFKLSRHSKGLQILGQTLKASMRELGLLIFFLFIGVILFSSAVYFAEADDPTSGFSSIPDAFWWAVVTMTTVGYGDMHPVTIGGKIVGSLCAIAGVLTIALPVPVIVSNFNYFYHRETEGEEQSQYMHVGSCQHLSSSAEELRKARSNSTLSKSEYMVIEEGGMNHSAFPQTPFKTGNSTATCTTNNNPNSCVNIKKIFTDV
row,SMILES,IC50 [µM]
1,CCOC(=O)C1(c2ccccc2)CCN(CCCc2ccccc2)CC1,0.8
2,CC(C)(C)OC(=O)NC1CCN(CCC(C#N)(c2ccccc2)c2ccccc2)CC1,25
3,N#CC(CCN1CC=C(c2ccccc2)CC1)(c1ccccc1)c1ccccc1,4.2
4,N#CC(CCN1CCN(Cc2ccccc2)CC1)(c1ccccc1)c1ccccc1,1.27
5,N#CC(CCN1CCN(c2ccccc2)CC1)(c1ccccc1)c1ccccc1,1.86
6,N#CC(CCN1CCC(N)CC1)(c1ccccc1)c1ccccc1,> 100
7,CCOC(=O)C1CCN(CCC(C#N)(c2ccccc2)c2ccccc2)CC1,230
8,N#CC(CCN1CCC(O)(c2ccccc2)CC1)(c1ccccc1)c1ccccc1,1.7
9,N#CC(CCN1CCC(c2ccccc2)CC1)(c1ccccc1)c1ccccc1,2.61
10,OC1CCN(CCCc2ccccc2)CC1,> 100
11,CCOC(=O)C1(c2ccccc2)CCN(CCC(C#N)(c2ccccc2)c2ccccc2)CC1 [DIPHENOXYLATE],5
12,COC(=O)C1(c2ccccc2)CCN(CCC(C#N)(c2ccccc2)c2ccccc2)CC1,2.52
13,OC1CCN(CCC(c2ccccc2)c2ccccc2)CC1,75
14,N#CC(CCN1CCCCC1)(c1ccccc1)c1ccccc1,20.5
15,N#CC(CCN1CCCC(O)C1)(c1ccccc1)c1ccccc1 (stereo not given),> 100
16,COC1CCN(CCC(C#N)(c2ccccc2)c2ccccc2)CC1,> 100
17,CCOC(=O)C1(c2ccccc2)CCN(CCC(c2ccccc2)c2ccccc2)CC1,0.9
18,N#CC(CCN1CCC(O)CC1)(c1ccccc1)c1ccccc1,0.75
19,CC1CCN(CCC(C#N)(c2ccccc2)c2ccccc2)CC1,5.8

# From ChEMBL document CHEMBL2203233, “Structure-activity relationship exploration of Kv1.3 blockers based on diphenoxylate” (Bioorg Med Chem Lett, 2012)
